According to ChEMBL document CHEMBL4311969, “Polygala tenuifolia-Acori tatarinowii herbal pair as an inspiration for substituted cinnamic α-asaronol esters: Design, synthesis, anticonvulsant activity, and inhibition of lactate dehydrogenase study” (Eur J Med Chem, 2019):
“And” between values parts separate entries of the source, which are not always exact repeats. Equal entries are not always repeated. The source made the active and inactive calls. No cut-off for these calls is given here.

Tests used:
[1] = test system: Mus musculus; test: Anticonvulsant activity in Kunming mouse assessed as reduction in ScPTZ-induced seizure at 100 mg/kg, ip administered 0.25 to 2 hrs before ScPTZ stimulation relative to control; assay type: functional
[2] = test system: Mus musculus; test: Anticonvulsant activity in Kunming mouse assessed as reduction in Sc3-MP-induced tonic seizure rate at 300 mg/kg, ip administered 0.5 hrs before Sc3-MP stimulation relative to control; assay type: functional; design: scale not given: the % may be the effect or the level left
[3] = test system: Mus musculus; test: Anticonvulsant activity in Kunming mouse assessed as reduction in ScPTZ-induced clonic seizure at 100 mg/kg, ip administered 0.5 hrs before ScPTZ stimulation relative to control; assay type: functional; design: scale not given: the % may be the effect or the level left
[4] = Protective index, ratio of TD50 for neurotoxicity against ip dosed Kunming mouse assessed as time remained in rod measured at 0.5 hrs by rotarod test to ED50 for anticonvulsant activity in ip dosed Kunming mouse assessed as reduction in Sc3-MP-induced seizure administered 0.5 hrs before Sc3-MP stimulation; assay type: toxicity, organism-based; conditions: in vivo, read-out: PI
[5] = test system: Mus musculus; test: Anticonvulsant activity in Kunming mouse assessed as reduction in Sc3-MP-induced clonic seizure rate at 300 mg/kg, ip administered 0.5 hrs before Sc3-MP stimulation relative to control; assay type: functional; design: scale not given: the % may be the effect or the level left
[6] = test system: Mus musculus; test: Anticonvulsant activity in Kunming mouse assessed as reduction in ScPTZ-induced tonic seizure rate at 300 mg/kg, ip administered 0.5 hrs before ScPTZ stimulation relative to control; assay type: functional; design: scale not given: the % may be the effect or the level left
[7] = test system: Mus musculus; test: Anticonvulsant activity in Kunming mouse assessed as reduction in ScPTZ-induced seizure at 100 mg/kg, ip administered 1 hr relative to control; assay type: functional; design: scale not given: the % may be the effect or the level left
[8] = test system: Mus musculus; test: Anticonvulsant activity in Kunming mouse assessed as reduction in ScPTZ-induced tonic seizure rate at 100 mg/kg, ip administered 0.5 hrs before ScPTZ stimulation relative to control; assay type: functional; design: scale not given: the % may be the effect or the level left
[9] = Protective index, ratio of TD50 for neurotoxicity against ip dosed Kunming mouse assessed as time remained in rod measured at 0.5 hrs by rotarod test to ED50 for anticonvulsant activity in ip dosed Kunming mouse assessed as MES-induced hind limb extension administered 0.5 hrs; assay type: toxicity, organism-based; conditions: in vivo, read-out: PI
[10] = test system: Mus musculus; test: Anticonvulsant activity in Kunming mouse assessed as reduction in ScPTZ-induced clonic seizure at 300 mg/kg, ip administered 0.5 hrs before ScPTZ stimulation relative to control; assay type: functional; design: scale not given: the % may be the effect or the level left
[11] = test system: Mus musculus; test: Anticonvulsant activity in Kunming mouse assessed as MES-induced hind limb extension at 100 mg/kg, ip administered 0. 5 to 4 hrs before MES stimulation relative to control; assay type: functional
[12] = test system: Mus musculus; test: Anticonvulsant activity in ip dosed Kunming mouse assessed as MES-induced hind limb extension administered 0.5 hrs before MES stimulation; assay type: functional
[13] = Protective index, ratio of TD50 for neurotoxicity against ip dosed Kunming mouse assessed as time remained in rod measured at 0.5 hrs by rotarod test to ED50 for anticonvulsant activity in ip dosed Kunming mouse assessed as reduction in ScPTZ-induced seizure administered 0.5 hrs before ScPTZ stimulation; assay type: toxicity, organism-based; conditions: in vivo, read-out: PI
[14] = test system: Mus musculus; test: […] activity in ip dosed Kunming mouse assessed as reduction in formalin-induced paw licking administered 0.5 hrs before formalin stimulation; assay type: functional
[15] = species: Homo sapiens; test: Inhibition of human LDH1 at 0.5 mM using sodium pyruvate as substrate by UV-VIS spectrophotometry method relative to control
[16] = Protective index, ratio of TD50 for neurotoxicity against ip dosed Kunming mouse assessed as time remained in rod measured at 0.5 hrs by rotarod test to ED50 for […] activity in ip dosed Kunming mouse assessed as reduction in formalin-induced paw licking administered 0.5 hrs before formalin stimulation; assay type: toxicity, organism-based; conditions: in vivo, read-out: PI
[17] = test system: Mus musculus; test: Anticonvulsant activity in Kunming mouse assessed as MES-induced hind limb extension at 50 mg/kg, ip administered 0.5 to 4 hrs before MES stimulation relative to control; assay type: functional
[18] = test system: Mus musculus; test: Anticonvulsant activity in ip dosed Kunming mouse assessed as reduction in ScPTZ-induced seizure administered 0.5 hrs before ScPTZ stimulation; assay type: functional
[19] = Neurotoxicity against Kunming mouse assessed as time remained in rod at 100 mg/kg, ip administered 0.5 to 2 hrs by rotarod test; assay type: toxicity, organism-based; conditions: in vivo
[20] = Neurotoxicity against ip dosed Kunming mouse assessed as time remained in rod measured at 0.5 hrs by rotarod test; assay type: toxicity, organism-based; conditions: in vivo
[21] = species: Homo sapiens; test: Inhibition of human LDH5 at 0.5 mM using sodium pyruvate as substrate by UV-VIS spectrophotometry method relative to control
[22] = test system: Mus musculus; test: Anticonvulsant activity in Kunming mouse assessed as reduction in Sc3-MP-induced seizure ip dosed measured at 0.5 hrs before Sc3-MP stimulation; assay type: functional
[23] = test system: Mus musculus; test: Anticonvulsant activity in Kunming mouse assessed as reduction in ScPTZ-induced seizure at 300 mg/kg, ip administered 0.25 to 2 hrs before ScPTZ stimulation relative to control; assay type: functional; design: scale not given: the % may be the effect or the level left
[24] = test system: Mus musculus; test: Anticonvulsant activity in Kunming mouse assessed as reduction in ScPTZ-induced seizure at 100 mg/kg, ip administered 0.5 hrs before ScPTZ stimulation relative to control; assay type: functional; design: scale not given: the % may be the effect or the level left
[25] = test system: Mus musculus; test: Anticonvulsant activity in Kunming mouse assessed as MES-induced hind limb extension at 100 mg/kg, ip administered 0. 5 to 2 hrs before MES stimulation; assay type: functional, organism-based
[26] = test system: Mus musculus; test: Anticonvulsant activity in Kunming mouse assessed as MES-induced hind limb extension at 50 mg/kg, ip administered 0.5 and 2 hrs before MES stimulation relative to control; assay type: functional
[27] = test system: Mus musculus; test: Anticonvulsant activity in Kunming mouse assessed as reduction in Sc3-MP-induced mortality rate at 300 mg/kg, ip administered 0.5 hrs before Sc3-MP stimulation relative to control; assay type: functional; design: scale not given: the % may be the effect or the level left
[28] = test system: Mus musculus; test: Anticonvulsant activity in Kunming mouse assessed as MES-induced hind limb extension at 100 mg/kg, ip administered 4 hrs before MES stimulation; assay type: functional, organism-based
[29] = species: Homo sapiens; test: Inhibition of human LDH5 at 0.5 mM using sodium pyruvate as substrate measured for 60 sec for every 5 mins by LC/MS-MS analysis
[30] = test system: Mus musculus; test: Anticonvulsant activity in Kunming mouse assessed as reduction in ScPTZ-induced mortality rate at 300 mg/kg, ip administered 0.5 hrs before ScPTZ stimulation relative to control; assay type: functional; design: scale not given: the % may be the effect or the level left
[31] = test system: Mus musculus; test: Anticonvulsant activity in Kunming mouse assessed as MES-induced hind limb extension at 100 mg/kg, ip administered 0. 5 hrs before MES stimulation relative to control; assay type: functional
[32] = species: Homo sapiens; test: Inhibition of human LDH1 at 0.5 mM using sodium pyruvate as substrate measured for 60 sec for every 5 mins by LC/MS-MS analysis
[33] = test system: Mus musculus; test: Anticonvulsant activity in Kunming mouse assessed as MES-induced hind limb extension at 100 mg/kg, ip administered 3 hrs before MES stimulation; assay type: functional, organism-based
[34] = Noncompetitive inhibition of human LDH5 at 0.5 mM using sodium pyruvate as substrate by UV-VIS spectrophotometry method based Lineweaver-Burk plot analysis
[35] = Noncompetitive inhibition of human LDH1 at 0.5 mM using sodium pyruvate as substrate by UV-VIS spectrophotometry method based Lineweaver-Burk plot analysis
[36] = test system: Mus musculus; test: Anticonvulsant activity in Kunming mouse assessed as reduction in Sc3-MP-induced seizure at 300 mg/kg, ip administered 0.5 hrs before Sc3-MP stimulation relative to control; assay type: functional; design: scale not given: the % may be the effect or the level left
[37] = test system: Mus musculus; test: Anticonvulsant activity in Kunming mouse assessed as reduction in Sc3-MP-induced seizure at 300 mg/kg, ip administered 0.25 and 1 hrs before Sc3-MP stimulation relative to control; assay type: functional, organism-based
[38] = test system: Mus musculus; test: Anticonvulsant activity in Kunming mouse assessed as reduction in ScPTZ-induced seizure at 100 mg/kg, ip administered 0.25 and 1 hrs before ScPTZ stimulation relative to control; assay type: functional; design: scale not given: the % may be the effect or the level left

Compound	Activity [1]	Activity [2] [%]	Activity [3] [%]	selectivity ratio at 0.5 h [4]	Activity [5] [%]	Activity [6] [%]	Activity [8] [%]	selectivity ratio at 0.5 h [9]	Activity [10] [%]	Activity [11]	ED50 [12]	selectivity ratio at 0.5 h [13]	ED50 [14]	inhibition [15]	selectivity ratio at 0.5 h [16]	Activity [17] [%]	ED50 [18]	Activity [19]	TD50 at 0.5 h [20]	inhibition [21]	further results
COc1cc(OC)c(OC)cc1/C=C/COC(=O)/C=C/c1ccc(OC)c(OC)c1	inactive	75	100	3.3	100	0	100	> 17.2	100	25 - 100%	58.1 mg/kg and 140 µmol/kg	> 5.8	93.3 mg/kg and 225 µmol/kg	Active	> 10.7	50	173 mg/kg and 418 µmol/kg	Non-Toxic	> 1000 mg/kg and > 2410 µmol/kg	Active	Activity [7]: 75%; ED50 [22]: > 300 mg/kg and > 724 µmol/kg; Activity [23]: 50%; Activity [24]: 100%; Activity [25]: Active; Activity [26]: 50%; Activity [27]: 25%
COc1ccccc1/C=C/C(=O)OC/C=C/c1cc(OC)c(OC)cc1OC	inactive	100	100	3.3	100	50	100	> 25.6	100	25 - 100%	39 mg/kg and 101 µmol/kg	> 4.2	113 mg/kg and 294 µmol/kg	inactive	> 8.9	50	240 mg/kg and 625 µmol/kg	Non-Toxic	> 1000 mg/kg and 2600 µmol/kg	inactive	Activity [28]: Active; inhibition [29]: 2%; Activity [30]: 25%; Activity [31]: 100%; ED50 [22]: > 300 mg/kg and 780 µmol/kg; Activity [23]: 50%; inhibition [32]: 2%; Activity [25]: Active; Activity [26]: 75%
COc1cc(OC)c(OC)cc1/C=C/COC(=O)/C=C/c1cc(OC)c(OC)c(OC)c1	inactive	75	100	3.3	100	25	100	29.8	100	25 - 100%	74.7 µmol/kg and 33.2 mg/kg	4.9	85.5 mg/kg and 192 µmol/kg	10%	11.6	50	204 mg/kg and 458 µmol/kg	Non-Toxic	2220 µmol/kg and 988 mg/kg	13%	Activity [33]: Active; inhibition [29]: 13%; Ki [34]: 3.35 µM; Activity [31]: 100%; Ki [35]: 14.1 µM; Activity [36]: 50%; ED50 [22]: > 200 mg/kg and > 450 µmol/kg; Activity [23]: 50%; Activity [37]: Active; inhibition [32]: 10%; Activity [38]: 75%; Activity [25]: Active; Activity [26]: 75%
COc1cc(OC)c(OC)cc1/C=C/COC(=O)/C=C/c1c(OC)ccc(OC)c1OC	inactive	75	100	3.3	100	50	100	> 18.7	100	25 - 100%	120 µmol/kg and 53.5 mg/kg	4.72	180 to 225 µmol/kg	Active	12.5	50	212 mg/kg and 476 µmol/kg	Non-Toxic	> 1000 mg/kg and > 2250 µmol/kg	Active	Ki [34]: 3.52 µM; Activity [31]: 100%; Ki [35]: 12 µM; ED50 [22]: > 300 mg/kg and > 675 µmol/kg; Activity [23]: 50%; Activity [25]: Active; Activity [26]: 50%; Activity [27]: 25%
